In US9952300B2, “Dynamic contrast enhanced MRI method and agents for the assessment of the macromolecular transport within pathologic tissues” (BRACCO IMAGING S.P.A., priority 2012, dated 2018):
Marks after values point to notes of the source that are not given here.

Tested on: A431 human epidermoid carcinoma xenografts
Assay: DCE-MRI with B22956/1 in A431 xenografts 24 h after PTX or vehicle (Example 5)
Type: in vivo, NCR athymic nude mice
Experimental: Human epidermoid carcinoma cell line (A431) (supplied by ATCC) were cultured in DMEM (Dulbecco's Modified Eagle Medium) High Glucose medium (4.5 g/L glucose) (Sigma-Aldrich, Steinheim, Germany), supplemented with 10% heat-inactivated foetal bovine serum (Lonza, Verviers, Belgium), 2 mM glutamine (Lonza, Verviers, Belgium), 100 IU/mL penicillin and 100 μg/mL streptomycin (Lonza, Verviers, Belgium) and maintained in a humidified atmosphere with 5% CO2 at 37° C. Exponentially growing cells were harvested and washed two times with PBS. Two million A431 cells were resuspended in 0.1 mL PBS and injected subcutaneously in the right and left flank of each of the 6 week old female mice. Tumors development were followed daily after inoculation, initially by palpation and by caliper once the mass will be established, until the day of the sacrifice. Mice were distributed randomly into 2 groups (Treated and Control) on the day of initial drug treatment when the average tumor diameter reached 7-8 mm, measured by caliper.
Paclitaxel (PTX) (Indena S.p.A., Milan, Italy): PTX solution was prepared in 50% Cremophor EL and 50% ethanol as described in Example 4 and further diluted in saline immediately before use to a final concentration of 2 mg/mL. PTX was administered intravenously (i.v., singular administration) at a dose of 20 mg/kg.
To this extent, 8 mice were divided into 2 groups; 2 animals of each of the two obtained groups were treated with PTX and 2 with vehicle (CTRL). Treatments started 14 days after the tumor implant, when the tumor reached a diameter in the range 7-8 mm, measured by caliper. The animals were administered with PTX or with CTRL at day 14 from the tumor implant (considered as DAY1). 24 hours after the treatment with PTX or CTRL (DAY2) each animal was injected with B22956/1 (used as non-limiting example of contrast agent according to the invention) and imaged with DCE-MRI. MRI imaging was performed pre-contrast and at different time points post-contrast agents administration. […] At DAY3 all the mice were imaged in vivo by Optical Imaging (01); then FITC-Albumin (10 mg/mL) was injected and 5 minutes later the animals were sacrificed. Tumors were excised and a second Optical Imaging acquisition was performed ex vivo. Finally tumors were prepared for the histological examination.
B22956/1, (Bracco Imaging S.p.A., obtained as above referred) was used as MRI contrast agent (CA). B22956/1 was intravenously injected at the dose of 100 μmol/kg, with an administration volume of 4 mL/kg.
24 hours after the treatment with PTX or CTRL each animal was injected with the CA (B22956/1) and imaged with DCE-MRI. The contrast agent was injected intravenously at an injection rate of about 1 mL/min through a catheter placed in the tail vein of the animal. For MR imaging experiments, animals were pre-anaesthetized with isofluorane gas (about 1%) in a mixture of 33% O2 and 66% N2O and the anesthesia was then maintained by adjustment of gas level in function of breath rate. MRI imaging was performed at different time points post-contrast agents administration. In particular, pre-contrast coronal and axial Rare T2-weighted anatomical images were acquired with the optimized parameters for high resolution with a good contrast, to detect the tumour mass. 3D FLASH images (Fast Low Angle Shot; TR about 6-7 milliseconds) with variable flip angle θ (FA=5-90° were acquired before contrast agent injection to estimate the tumour and muscle longitudinal relaxation time by using matrix 128×128×8, slice thickness ˜1.5 mm, FOV ˜3.0×3.0 cm. The same sequences (FA=20°, TR about 6-7 milliseconds) were then acquired to follow CA dynamic in tumor and blood vessels after CA i.v. injection. Flow artifacts were avoided by placing two thick saturation bands just above and below the measured slices. […]

[1] = A431 tumors 24 h after PTX 20 mg/kg i.v., mean of 8 tumors

SMILES	extravasation of the contrast agent within the first minute after injection (mouse, in vivo)	AUC10.20 (of B22956/1), Mean (A431 tumors 24 h after PTX 20 mg/kg i.v., 10 to 20 min post injection, mean of 8 tumors)	AUC20.30 (of B22956/1), Mean (A431 tumors 24 h after PTX 20 mg/kg i.v., 20 to 30 min post injection, mean of 8 tumors)	ktrans (of B22956/1), Mean (A431 tumors 24 h after PTX 20 mg/kg i.v., B22956/1 100 μmol/kg, mean of 8 tumors)	AVGENH (of B22956/1), Mean [1]	EARLYAUCRATIO (of B22956/1), Mean [1]	IAUC1 (of B22956/1), Mean [1]	LATEAUCRATIO (of B22956/1), Mean [1]	fPV (of B22956/1), Mean [1]	kep (of B22956/1), Mean [1]
C[C@H](CCC(=O)[O-])[C@H]1CC[C@H]2[C@@H]3CC[C@@H]4C[C@@H](NC(=O)CC[C@@H](C(=O)[O-])N(CCN(CC(=O)[O-])CC(=O)[O-])CCN(CC(=O)[O-])CC(=O)[O-])CC[C@]4(C)[C@H]3C[C@H](O)[C@]12C.[Gd+3].[Na+].[Na+].[Na+] [B22956/1, Gadocoletic acid trisodium salt]	negligible									
CC(=O)O[C@H]1C(=O)[C@@]2(C)[C@H]([C@H](OC(=O)c3ccccc3)[C@]3(O)C[C@H](OC(=O)[C@H](O)[C@@H](NC(=O)c4ccccc4)c4ccccc4)C(C)=C1C3(C)C)[C@]1(OC(C)=O)CO[C@@H]1C[C@@H]2O [PTX, Paclitaxel]		27*	25.3**	0.0255*	54*	0.036	0.8	1.14**	0.038	0.112
